Data published in patent US20190365878A1, “PHARMACEUTICAL TREATMENTS FOR PREVENTING OR TREATING PANCREATIC CANCER” (THE JOHNS HOPKINS UNIVERSITY, priority 2016, published 2019).

Tested on: Panc02 murine pancreatic adenocarcinoma cells
Experiment: hemi-splenectomy liver metastasis mouse model, 90 day survival
Type: in vivo, C57/B16 mice
Details: 28-day dosing scheme, followed 90 days
Excerpt: Survival Proportions: 90 Day survival of all groups.
The inventors performed hemi-splenectomy with the injection of 2×10^6 Panc02 murine pancreatic adenocarcinoma cells on C57/B16 mice, aged 9-10 weeks to model metastasis of pancreatic tumor cells to the liver. Mice were divided into treatment groups and dosed with cyclophosphamide and GVAX vaccine as well as an oral IDO1 inhibitor PF-06840003, according to a 28-day dosing scheme.
An oral methocel vehicle was given as a placebo treatment. The IDO inhibitor PF-06840003 and oral methocel compounds were administered twice daily by oral gavage, starting on post-operative day 3 and extending through post-operative day 28. Cyclophosphamide was administered on post-operative day 3. GVAX vaccine was administered on post-operative days 4, 7, 14 and 21. Mice were followed for survival for 90 days.

O=C1CC(c2c[nH]c3ccc(F)cc23)C(=O)N1 (stereo not shown) [PF-06840003]
survival: no significant effect on survival
